Source: PubChem BioAssay AID1919003 (Molecular Pharmacology Branch, DTP, NCI, 2023)

Tested on: 786-0 complex spheroids with HUVEC/MSC, growth % test/control
Test: Anticancer human tumor 786-0 cell line growth inhibition [AhR];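 also: compound exposure lasted seven days before the read-out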
Settings: for IC50: curve of first compound; for viability, T/C: stronger effect = lower value; active = viability on the fitted dose curve at most 10% of control; inactive = the rest
Summary of the method: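 Spheroids combined tumor cells with HUVEC endothelial cells and human MSCs as stroma. AhR antagonists were paired with standard or investigational drugs, each dosed in half-log steps down from near clinical Cmax, or from 10 microM where Cmax was unknown.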

[1] = second compound 0.1 µM, first compound 0.0316 µM
[2] = second compound 0.1 µM, first compound 0.1 µM
[3] = second compound 0.1 µM, first compound 0.316 µM
[4] = second compound 0.1 µM, first compound 1 µM
[5] = second compound 0.1 µM, first compound 3.16 µM
[6] = second compound 0.1 µM, first compound 10 µM
[7] = second compound 0.316 µM, first compound 0.0316 µM
[8] = second compound 0.316 µM, first compound 0.1 µM
[9] = second compound 0.316 µM, first compound 0.316 µM
[10] = second compound 0.316 µM, first compound 1 µM
[11] = second compound 0.316 µM, first compound 3.16 µM
[12] = second compound 0.316 µM, first compound 10 µM
[13] = second compound 1 µM, first compound 0.0316 µM
[14] = second compound 1 µM, first compound 0.1 µM
[15] = second compound 1 µM, first compound 0.316 µM
[16] = second compound 1 µM, first compound 1 µM
[17] = second compound 1 µM, first compound 3.16 µM
[18] = second compound 1 µM, first compound 10 µM
[19] = second compound 3.16 µM, first compound 0.0316 µM
[20] = second compound 3.16 µM, first compound 0.1 µM
[21] = second compound 3.16 µM, first compound 0.316 µM
[22] = second compound 3.16 µM, first compound 1 µM
[23] = second compound 3.16 µM, first compound 3.16 µM
[24] = second compound 3.16 µM, first compound 10 µM
[25] = second compound 10 µM, first compound 0.0316 µM
[26] = second compound 10 µM, first compound 0.1 µM
[27] = second compound 10 µM, first compound 0.316 µM
[28] = second compound 10 µM, first compound 1 µM
[29] = second compound 10 µM, first compound 3.16 µM
[30] = second compound 10 µM, first compound 10 µM

NS(=O)(=O)OCC1CC(n2ccc3c(NC4CCc5ccccc54)ncnc32)CC1O (stereo not given) + CC(CO)NC(=O)c1cc(-c2ccc(Cl)cc2)nn(-c2cnn(C)c2)c1=O
inactive: viability, T/C [1] 78.8% | viability, T/C [2] 78.7% | viability, T/C [3] 52.8% | viability, T/C [4] 20.9% | viability, T/C [7] 86.8% | viability, T/C [8] 73.3% | viability, T/C [9] 54.5% | viability, T/C [10] 19.6% | viability, T/C [13] 77.4% | viability, T/C [14] 72.1% | viability, T/C [15] 55.2% | viability, T/C [16] 21.8% | viability, T/C [19] 87.8% | viability, T/C [20] 67.7% | viability, T/C [21] 47.6% | viability, T/C [22] 19.1% | viability, T/C [25] 93% | viability, T/C [26] 72.9% | viability, T/C [27] 46.5% | viability, T/C [28] 18.7%
0.365 µM: IC50 (second compound 0.1 µM)
active: viability, T/C [5] 3.93% | viability, T/C [6] 1.87% | viability, T/C [11] 4.23% | viability, T/C [12] 2.08% | viability, T/C [17] 4% | viability, T/C [18] 2.14% | viability, T/C [23] 3.93% | viability, T/C [24] 2.48% | viability, T/C [29] 3.17% | viability, T/C [30] 2.21%
0.249 µM: IC50 (second compound 3.16 µM)
0.261 µM: IC50 (second compound 10 µM)
0.344 µM: IC50 (second compound 0.316 µM)
0.376 µM: IC50 (second compound 1 µM)

Nc1ccccc1NC(=O)c1ccc(CNC(=O)OCc2cccnc2)cc1 + Cc1ccccc1N=Nc1ccc(NC(=O)c2ccnn2C)c(C)c1
inactive: viability, T/C [1] 104% | viability, T/C [2] 99.1% | viability, T/C [3] 120% | viability, T/C [4] 103% | viability, T/C [5] 94.2% | viability, T/C [6] 30.8% | viability, T/C [7] 114% | viability, T/C [8] 103% | viability, T/C [9] 106% | viability, T/C [10] 115% | viability, T/C [11] 105% | viability, T/C [12] 31.1% | viability, T/C [13] 105% | viability, T/C [14] 111% | viability, T/C [15] 105% | viability, T/C [16] 104% | viability, T/C [17] 94.3% | viability, T/C [18] 32% | viability, T/C [19] 88.1% | viability, T/C [20] 90.6% | viability, T/C [21] 92.2% | viability, T/C [22] 80.8% | viability, T/C [23] 91.4% | viability, T/C [24] 28.2% | viability, T/C [25] 88.5% | viability, T/C [26] 91.7% | viability, T/C [27] 99.2% | viability, T/C [28] 91.2% | viability, T/C [29] 75.8% | viability, T/C [30] 26.3%
7.47 µM: IC50 (second compound 0.316 µM)
7.2 µM: IC50 (second compound 1 µM)
6.61 µM: IC50 (second compound 3.16 µM)
7.06 µM: IC50 (second compound 0.1 µM)
5.76 µM: IC50 (second compound 10 µM)
